Assay: Fluorescence properties and quantum yield measurements of the BAA library
Type: physicochemical
Parameters: FWHM (full-width-at half max): unit not given here
Conditions: anhydrous DMSO; for λmax ABS / λmax EM: polystyrene 96 well plate; for FWHM (full-width-at half max): emission; for φfl (quantum yield): relative to reference fluorophore at three concentrations
Protocol: General Instruments. Synthesized sample purification was performed with an Agilent 1260 Infinity HPLC utilizing a C18 column (150mm×21.2 mm). MS (HRMS, ESI) spectra data was collected with an Agilent 6244 TOF LC/MS with diode array detector VL+ and C18 column (4.6 mm×50 mm). Absorbance and fluorescence data were measured on a SpectraMax M5 Microplate reader. NMR spectra, ^1H and ^13C, were recorded on a Bruker ARK400 spectrometer. BAA microscopy screening in cells for organelle specificity and signal-to-background ratio was completed with an Axio Zeiss Light Microscope and 63× oil immersion objective.
Fluorescence Properties and Quantum Yield Measurements. Spectroscopic characterizations were performed in anhydrous DMSO in polystyrene 96 well plate. Analysis included the maximum absorbance wavelength, maximum fluorescence emission wavelength, full-width-at half max, and quantum yield. Quantum yields (φfl) were determined by comparing the area under the emission spectrum of the BAA compound to a reference fluorophore solution at three concentrations using equation 1, where Grad represents the gradient from the plots of integrated fluorescence intensity vs absorbance at three concentrations and q is the refractive index of the solvent. Fluorescein in 0.1 M NaOH (φfl=0.91)^3 was the reference for samples with a max absorbance up to 510 nm, where an excitation of 470 nm was used with the emission integrated between 490 to 800 nm. Rhodamine B in ethanol (φfl=0.70) was the reference for samples with a max absorbance between 511-595 nm, where an excitation of 525 nm was used with the emission integrated between 545 to 800 nm. Cresyl violet in methanol (φfl=0.54)^4 was the reference for samples with a max absorbance above 595 nm, where an excitation of 570 nm was used with the emission integrated between 590 to 800 nm.

Stokes Shift | λmax ABS | λmax EM | FWHM (full-width-at half max) | φfl (quantum yield) | Structure (SMILES)
11 nm | 587 nm | 598 nm | 61 | 0.15 | CCSc1ccc(-c2ccc(C=CC3=[N+]4C(=Cc5ccc(CCC(=O)O)n5[B-]4(F)F)C(C)=C3)cn2)cc1 [BAA-67a]
9 nm | 571 nm | 580 nm | 32 | 0.25 | CC1=CC(C=Cc2ccccc2Oc2ccc(C#N)cc2)=[N+]2C1=Cc1ccc(C(=Cc3ccccc3Oc3ccc(C#N)cc3)CC(=O)O)n1[B-]2(F)F [BAA-35b]
10 nm | 572 nm | 582 nm | 30 | 0.70 | COC(=O)c1ccc(-c2cccc(C=CC3=[N+]4C(=Cc5ccc(CCC(=O)O)n5[B-]4(F)F)C(C)=C3)c2)cc1 [BAA-58a]
16 nm | 606 nm | 622 nm | 54 | 0.21 | CC1=CC(C=Cc2ccc(-c3ccccc3F)o2)=[N+]2C1=Cc1ccc(CCC(=O)O)n1[B-]2(F)F [BAA-65a]
19 nm | 581 nm | 600 nm | 56 | 0.43 | COc1ccc(/C=C(/CC(=O)O)c2ccc3n2[B-](F)(F)[N+]2=C(/C=C/c4ccc(OC)c(C)c4OC)C=C(C)C2=C3)c(OC)c1C [BAA-7b]
13 nm | 582 nm | 595 nm | 35 | 0.64 | CC1=CC(/C=C/c2ccc(-c3cccs3)cc2)=[N+]2C1=Cc1ccc(CCC(=O)O)n1[B-]2(F)F [BAA-19a]
17 nm | 583 nm | 600 nm | 51 | 0.22 | COc1ccc(C=O)cc1OCCOc1cc(C=CC2=[N+]3C(=Cc4ccc(C(=Cc5ccc(OC)c(OCCOc6cc(C=O)ccc6OC)c5)CC(=O)O)n4[B-]3(F)F)C(C)=C2)ccc1OC [BAA-74b]
23 nm | 592 nm | 615 nm | 47 | 0.83 | COc1cc(OC)c(/C=C/C2=[N+]3C(=Cc4ccc(CCC(=O)O)n4[B-]3(F)F)C(C)=C2)c(OC)c1 [BAA-5a]
11 nm | 570 nm | 581 nm | 30 | 0.44 | COc1cc(C=CC2=[N+]3C(=Cc4ccc(CCC(=O)O)n4[B-]3(F)F)C(C)=C2)cc(OC)c1 [BAA-53a]
2 nm | 579 nm | 581 nm | 33 | 0.07 | CC1=CC(C=Cc2cccc(N3CCCC3)n2)=[N+]2C1=Cc1ccc(CCC(=O)O)n1[B-]2(F)F [BAA-38a]
9 nm | 569 nm | 578 nm | 30 | 0.55 | CC1=CC(C=Cc2ccc(-c3cccnc3)cc2)=[N+]2C1=Cc1ccc(C(=Cc3ccc(-c4cccnc4)cc3)CC(=O)O)n1[B-]2(F)F [BAA-37b]
10 nm | 574 nm | 584 nm | 32 | 0.23 | CC1=CC(C=Cc2ccc(Oc3ccc([N+](=O)[O-])cc3)cc2)=[N+]2C1=Cc1ccc(CCC(=O)O)n1[B-]2(F)F [BAA-32a]

More lines, now with the values behind:

Structure (SMILES) | Stokes Shift | λmax ABS | λmax EM | FWHM (full-width-at half max) | φfl (quantum yield)
CC1=CC(C=Cc2cccc(-c3ccc(S(C)(=O)=O)cc3)n2)=[N+]2C1=Cc1ccc(CCC(=O)O)n1[B-]2(F)F [BAA-59a] | 10 nm | 571 nm | 581 nm | 30 | 0.53
C#CCOc1c(Cl)cc(C=CC2=[N+]3C(=Cc4ccc(CCC(=O)O)n4[B-]3(F)F)C(C)=C2)cc1OC [BAA-52a] | 8 nm | 577 nm | 585 nm | 51 | 0.04
CC1=CC(C=Cc2c[nH]c3c(OCc4ccccc4)cccc23)=[N+]2C1=Cc1ccc(CCC(=O)O)n1[B-]2(F)F [BAA-77a] | 31 nm | 603 nm | 634 nm | 61 | 0.50
COc1cc(C=CC2=[N+]3C(=Cc4ccc(C(=Cc5ccc(OCc6ccccc6C)c(OC)c5)CC(=O)O)n4[B-]3(F)F)C(C)=C2)ccc1OCc1ccccc1C [BAA-41b] | 20 nm | 582 nm | 602 nm | 47 | 0.36
CC1=CC(C=Cc2c[nH]c3ccc(OCc4ccccc4)cc23)=[N+]2C1=Cc1ccc(CCC(=O)O)n1[B-]2(F)F [BAA-48a] | 38 nm | 603 nm | 641 nm | 60 | 0.45
CC1=CC(/C=C/c2cc(C)c(C)cc2C)=[N+]2C1=Cc1ccc(CCC(=O)O)n1[B-]2(F)F [BAA-16a] | 58 nm | 552 nm | 610 nm | 78 | 0.22
CC1=CC(C=Cc2ccc(N(CCC#N)CCC#N)cc2)=[N+]2C1=Cc1ccc(C(=Cc3ccc(N(CCC#N)CCC#N)cc3)CC(=O)O)n1[B-]2(F)F [BAA-75b] | 55 nm | 605 nm | 660 nm | 91 | 0.18
CC1=CC(/C=C/c2ccc(OCc3ccccc3)cc2)=[N+]2C1=Cc1ccc(CCC(=O)O)n1[B-]2(F)F [BAA-18a] | 16 nm | 577 nm | 593 nm | 37 | 0.65
COc1ccc2c(/C=C(/CC(=O)O)c3ccc4n3[B-](F)(F)[N+]3=C(/C=C/c5c(Cl)ncc6cc(OC)ccc56)C=C(C)C3=C4)c(Cl)ncc2c1 [BAA-1b] | 17 nm | 580 nm | 597 nm | 40 | 0.62
CC1=CC(/C=C/c2ccc(-c3ccc(C(F)(F)F)cn3)cc2)=[N+]2C1=Cc1ccc(/C(=C\c3ccc(-c4ccc(C(F)(F)F)cn4)cc3)CC(=O)O)n1[B-]2(F)F [BAA-23b] | 8 nm | 580 nm | 588 nm | 32 | 0.19
CCOc1ccc(C=CC2=[N+]3C(=Cc4ccc(CCC(=O)O)n4[B-]3(F)F)C(C)=C2)c(OCC)c1 [BAA-47a] | 22 nm | 589 nm | 611 nm | 47 | 0.33
CC1=CC(C=Cc2ccc(OC(=O)c3ccc(Cl)cc3Cl)cc2)=[N+]2C1=Cc1ccc(CCC(=O)O)n1[B-]2(F)F [BAA-42a] | 10 nm | 570 nm | 580 nm | 30 | 0.36
CCCSc1ncc(/C=C/C2=[N+]3C(=Cc4ccc(CCC(=O)O)n4[B-]3(F)F)C(C)=C2)cn1 [BAA-12a] | 27 nm | 589 nm | 616 nm | 88 | 0.10
CC1=CC(/C=C/c2cc(Cl)ccc2Cl)=[N+]2C1=Cc1ccc(/C(=C\c3cc(Cl)ccc3Cl)CC(=O)O)n1[B-]2(F)F [BAA-29b] | 11 nm | 569 nm | 580 nm | 37 | 0.13
CC1=CC(C=Cc2ccc(-c3nccs3)cc2)=[N+]2C1=Cc1ccc(CCC(=O)O)n1[B-]2(F)F [BAA-68a] | 10 nm | 585 nm | 595 nm | 30 | 0.17
CC1=CC(C=Cc2cn(CCC(=O)O)c3ccccc23)=[N+]2C1=Cc1ccc(CCC(=O)O)n1[B-]2(F)F [BAA-30a] | 36 nm | 607 nm | 643 nm | 58 | 0.43
CC1=CC(C=Cc2cnn(-c3ccccc3)c2C)=[N+]2C1=Cc1ccc(C(=Cc3cnn(-c4ccccc4)c3C)CC(=O)O)n1[B-]2(F)F [BAA-55b] | 16 nm | 575 nm | 591 nm | 38 | 0.75
COc1cc(OCc2ccccc2)ccc1/C=C(/CC(=O)O)c1ccc2n1[B-](F)(F)[N+]1=C(/C=C/c3ccc(OCc4ccccc4)cc3OC)C=C(C)C1=C2 [BAA-21b] | 20 nm | 588 nm | 608 nm | 50 | 0.54

Source: patent US20170233414A1, “DERIVATIVES OF BODIPY” (OREGON HEALTH & SCIENCE UNIVERSITY, priority 2016, published 2017)
